According to the supplement of paper PMC10307832:

Assays:
Test in all cases: relative viability (nuclei count vs DMSO), 5 days (fraction); higher = more cells survive
[1] = compound: C1CC1C(=O)NC2=NNC3=C2C=CC(=C3)C4=CC(=CC=C4)C(=O)NC5CC5 [XMD13-2] + CC(=O)Nc1cccc(-n2c(=O)n(C3CC3)c(=O)c3c(Nc4ccc(I)cc4F)n(C)c(=O)c(C)c32)c1 [Trametinib] (partner 0.02 µM)
In short: (§1)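 Relative viability was taken as the ratio of nuclei in treated wells to nuclei in vehicle wells. Lung cancer cell lines in 1536-well plates received compounds by pin tool one day after seeding, either one drug alone or a fixed anchor-drug dose plus five library-drug doses (not always all listed) in √10 steps. Nuclei were counted on 4× images after 5 days of treatment, and values are medians of duplicate plates.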

[2] = compound: Cc1ccc(C(=O)Nc2cccc(C(F)(F)F)c2)cc1Nc1cncc(C(N)=O)c1 [ALW-II-49-7] + CC(C)C[C@H](NC(=O)[C@H](Cc1ccccc1)NC(=O)c1cnccn1)B(O)O [Bortezomib] (partner 0.002 µM)
In short: as §1

[3] = compound: Cc1ccc(C(=O)Nc2cccc(C(F)(F)F)c2)cc1Nc1cncc(C(N)=O)c1 [ALW-II-49-7] + Cc1cc(Nc2cc(N3CCN(C)CC3)nc(Sc3ccc(NC(=O)C4CC4)cc3)n2)n[nH]1 [Tozasertib] (partner 0.1 µM)
In short: as §1

[4] = compound: Cc1nc(Nc2ncc(C(=O)Nc3c(C)cccc3Cl)s2)cc(N2CCN(CCO)CC2)n1 [Dasatinib] + CC(C)C[C@H](NC(=O)[C@H](Cc1ccccc1)NC(=O)c1cnccn1)B(O)O [Bortezomib] (partner 0.002 µM)
In short: as §1

| Cell Line | relative viability ([1]; first compound 0.05 µM) | relative viability ([1]; first compound 0.1581 µM) | relative viability ([1]; first compound 0.5 µM) | relative viability ([1]; first compound 1.581 µM) | relative viability ([1]; first compound 5 µM) | relative viability ([2]; first compound 0.08 µM) | relative viability ([2]; first compound 0.253 µM) | relative viability ([2]; first compound 0.8 µM) | relative viability ([2]; first compound 2.53 µM) | relative viability ([2]; first compound 8 µM) | relative viability ([3]; first compound 0.08 µM) | relative viability ([3]; first compound 0.253 µM) | relative viability ([3]; first compound 0.8 µM) | relative viability ([3]; first compound 2.53 µM) | relative viability ([3]; first compound 8 µM) | relative viability ([4]; first compound 0.005 µM) | relative viability ([4]; first compound 0.01581 µM) | relative viability ([4]; first compound 0.05 µM) | relative viability ([4]; first compound 0.1581 µM) | relative viability ([4]; first compound 0.5 µM) |
| --- | --- | --- | --- | --- | --- | --- | --- | --- | --- | --- | --- | --- | --- | --- | --- | --- | --- | --- | --- | --- |
| NCI-H2023 | 0.621 | 0.54 | 0.555 | 0.561 | 0.633 | 1.05 | 0.889 | 1 | 0.942 | 0.666 | 0.257 | 0.464 | 0.276 | 0.259 | 0.189 | 0.788 | 0.818 | 0.791 | 0.705 | 0.669 |
| EBC-1 | – | – | – | – | – | 0.543 | 0.508 | 0.474 | 0.513 | 0.39 | – | – | – | – | – | 0.583 | 0.459 | 0.486 | 0.49 | 0.436 |
| NCI-H1666 | 0.745 | 0.937 | 0.89 | 0.799 | 0.987 | 0.663 | 0.79 | 0.87 | 1.04 | 0.928 | 0.609 | 0.603 | 0.569 | 0.612 | 0.498 | 0.763 | 0.663 | 0.718 | 0.582 | 0.288 |
| NCI-H1975 | 0.27 | 0.327 | 0.375 | 0.358 | 0.382 | 0.274 | 0.485 | 0.333 | 0.338 | 0.319 | 0.743 | 1.05 | 0.667 | 0.508 | 0.243 | 0.393 | 0.279 | 0.348 | 0.212 | 0.22 |
| NCI-H2170 | 0.94 | 0.929 | 0.965 | 0.883 | 0.95 | – | – | – | – | – | 0.724 | 0.817 | 0.73 | 0.618 | 0.767 | – | – | – | – | – |
